Values quoted from earlier work in patent US20130190388A1, “Methods and Compositions Related to DLK-1 and the P38 MAPK Pathway in Nerve Regeneration” (University of Utah Research Foundation, priority 2008, published 2013).

Key:
[1] = test system: adult DRG neurons; conditions: inhibiting p38 signaling; reduced from about 65% without inhibitor
[2] = test system: Magellan (Phr-1) growth cone phenotype; conditions: Phr-1 (Magellan) mutant neurons

| SMILES | regeneration in vitro by adult DRG neurons [1] | growth cone phenotype (expanded region of disorganized microtubules) [2] |
| --- | --- | --- |
| C[S+]([O-])c1ccc(-c2nc(-c3ccncc3)c(-c3ccc(F)cc3)[nH]2)cc1 (centres unmarked) [SB203580] | 10% | – |
| CC(=O)O[C@H]1C(=O)[C@@]2(C)[C@H]([C@H](OC(=O)c3ccccc3)[C@]3(O)C[C@H](OC(=O)[C@H](O)[C@@H](NC(=O)c4ccccc4)c4ccccc4)C(C)=C1C3(C)C)[C@]1(OC(C)=O)CO[C@@H]1C[C@@H]2O [Taxol] | – | rescued |
